Measurements from PubChem BioAssay AID330 (DTP/NCI, 2004).
Where “and” joins values, the source holds several entries; their conditions need not be identical. Equal entries are not always repeated. Toxic doses and inconclusive results are not listed.

Test system: P388 leukemia ip, CD2F1 mice, survival T/C
Assay: NCI In Vivo Anticancer Drug Screen. Data for tumor model P388 Leukemia (intraperitoneal) in CD2F1 (CDF1) mice
Conditions: endpoint: median survival time, higher = longer survival
Method in brief: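 Mice carrying the transplanted tumor received test compound or vehicle. Survival was recorded in each group, and the value is the treated-group measurement divided by that of the vehicle-treated control group.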

[1] = dose: 100.0 mg/kg/injection, schedule: Q04DX003 (ip), vehicle: saline with Tween-80
[2] = dose: 200.0 mg/kg/injection, schedule: Q04DX003 (ip), vehicle: saline with Tween-80
[3] = dose: 400.0 mg/kg/injection, schedule: Q04DX003 (ip), vehicle: saline with Tween-80
[4] = dose: 50.0 mg/kg/injection, schedule: Q01DX005 (ip), vehicle: saline with Tween-80
[5] = dose: 100.0 mg/kg/injection, schedule: Q01DX005 (ip), vehicle: saline with Tween-80
[6] = dose: 200.0 mg/kg/injection, schedule: Q01DX005 (ip), vehicle: saline with Tween-80
[7] = dose: 6.25 mg/kg/injection, schedule: Q01DX009 (ip), vehicle: saline with Tween-80
[8] = dose: 12.5 mg/kg/injection, schedule: Q01DX009 (ip), vehicle: saline with Tween-80
[9] = dose: 25.0 mg/kg/injection, schedule: Q01DX009 (ip), vehicle: saline with Tween-80
[10] = dose: 50.0 mg/kg/injection, schedule: Q01DX005 (ip), vehicle: Klucel (hydroxypropylcellulose) (HPC)
[11] = dose: 100.0 mg/kg/injection, schedule: Q01DX005 (ip), vehicle: Klucel (hydroxypropylcellulose) (HPC)
[12] = dose: 200.0 mg/kg/injection, schedule: Q01DX005 (ip), vehicle: Klucel (hydroxypropylcellulose) (HPC)
[13] = dose: 60.0 mg/kg/injection, schedule: Q01DX005 (ip), vehicle: saline with Tween-80
[14] = dose: 120.0 mg/kg/injection, schedule: Q01DX005 (ip), vehicle: saline with Tween-80
[15] = dose: 240.0 mg/kg/injection, schedule: Q01DX005 (ip), vehicle: saline with Tween-80
[16] = dose: 25.0 mg/kg/injection, schedule: Q01DX005 (ip), vehicle: Klucel (hydroxypropylcellulose) (HPC)

## CC(=O)Oc1c(C)c(O)c(C(C)=O)c2c1C1(C)C(=O)C(C(C)=O)=C(O)C=C1O2 (configuration not stated)
dose: 6.25 mg/kg/injection, schedule: Q01DX009 (ip), vehicle: gum acacia
  T/C: 104 % of control and 107 % of control
dose: 12.5 mg/kg/injection, schedule: Q01DX009 (ip), vehicle: gum acacia
  T/C: 101 % of control and 106 % of control
dose: 25.0 mg/kg/injection, schedule: Q01DX009 (ip), vehicle: gum acacia
  T/C: 101 % of control and 110 % of control
dose: 50.0 mg/kg/injection, schedule: Q01DX009 (ip), vehicle: gum acacia
  T/C: 100 % of control and 104 % of control
dose: 100.0 mg/kg/injection, schedule: Q01DX009 (ip), vehicle: gum acacia
  T/C: 108 % of control and 110 % of control
dose: 200.0 mg/kg/injection, schedule: Q01DX009 (ip), vehicle: gum acacia
  T/C: 113 % of control and 119 % of control

## O=NN(C(=O)NC1CCC(C(=O)O)CC1)C1CCC(C(=O)O)CC1 (configuration not stated)
dose: 25.0 mg/kg/injection, schedule: Q01DX001 (ip), vehicle: distilled water + Tween-80
  T/C: 93 % of control
dose: 50.0 mg/kg/injection, schedule: Q01DX001 (ip), vehicle: distilled water + Tween-80
  T/C: 93 % of control
dose: 100.0 mg/kg/injection, schedule: Q01DX001 (ip), vehicle: distilled water + Tween-80
  T/C: 93 % of control
dose: 200.0 mg/kg/injection, schedule: Q01DX001 (ip), vehicle: distilled water + Tween-80
  T/C: 101 % of control

## O=C(/C=C/c1c(Cl)cccc1Cl)c1ccc(Cl)cc1
[1]
  T/C: 100 % of control
[2]
  T/C: 100 % of control
[3]
  T/C: 109 % of control

## O=NN(CCCl)C(=O)Nc1ccc(CCO)cc1
dose: 0.22 mg/kg/injection, schedule: Q01DX009 (ip), vehicle: saline + alcohol
  T/C: 118 % of control
dose: 0.5 mg/kg/injection, schedule: Q01DX009 (ip), vehicle: saline + alcohol
  T/C: 154 % of control
dose: 0.75 mg/kg/injection, schedule: Q01DX009 (ip), vehicle: saline + alcohol
  T/C: 172 % of control
dose: 4.0 mg/kg/injection, schedule: Q01DX009 (ip), vehicle: saline
  T/C: 272 % of control
dose: 6.0 mg/kg/injection, schedule: Q01DX009 (ip), vehicle: saline
  T/C: 272 % of control
dose: 9.0 mg/kg/injection, schedule: Q01DX009 (ip), vehicle: saline
  T/C: 272 % of control

## O=C(CCCC(=O)Nc1ccc2c(=O)c3ccccc3[nH]c2c1)Nc1ccc2c(=O)c3ccccc3[nH]c2c1
[4]
  T/C: 98 % of control
[5]
  T/C: 104 % of control
[6]
  T/C: 100 % of control

## O=c1c2ccccc2oc2nc3cc(Cl)ccc3n12
[4]
  T/C: 104 % of control
[5]
  T/C: 95 % of control
[6]
  T/C: 98 % of control

## CN1CCc2c3n(c4ccccc24)C(=O)CCC31 (configuration not stated)
[7]
  T/C: 120 % of control
[8]
  T/C: 120 % of control
[9]
  T/C: 120 % of control

## S=c1[nH]ncn2nc3ccccc3c12
[4]
  T/C: 100 % of control
[5]
  T/C: 97 % of control
[6]
  T/C: 97 % of control

## CCN(CC)CC(C)(C)C(=O)/C=C/c1ccc(C)cc1
dose: 60.0 mg/kg/injection, schedule: Q01DX005 (ip), vehicle: saline
  T/C: 103 % of control
dose: 120.0 mg/kg/injection, schedule: Q01DX005 (ip), vehicle: saline
  T/C: 103 % of control
dose: 240.0 mg/kg/injection, schedule: Q01DX005 (ip), vehicle: saline
  T/C: 110 % of control

## COc1ccc(/C(C#N)=C\c2ccnc3ccccc23)c(OC)c1
dose: 12.5 mg/kg/injection, schedule: Q01DX009 (ip), vehicle: other
  T/C: 87 % of control
dose: 25.0 mg/kg/injection, schedule: Q01DX009 (ip), vehicle: other
  T/C: 91 % of control
dose: 50.0 mg/kg/injection, schedule: Q01DX009 (ip), vehicle: other
  T/C: 87 % of control
dose: 100.0 mg/kg/injection, schedule: Q01DX009 (ip), vehicle: other
  T/C: 87 % of control
dose: 200.0 mg/kg/injection, schedule: Q01DX009 (ip), vehicle: other
  T/C: 87 % of control

## O=C1NC(=O)C2(Cc3cccc4cccc2c34)N1 (configuration not stated)
[4]
  T/C: 103 % of control
[5]
  T/C: 100 % of control
[6]
  T/C: 99 % of control

## COc1cc(N)c(S(=O)(=O)O)cc1N=N/C(=N/Nc1cc(S(=O)(=O)O)c(N)cc1OC)C(=O)Nc1ccccc1
[10]
  T/C: 107 % of control
[11]
  T/C: 104 % of control
[12]
  T/C: 109 % of control

## COc1ccc(CC(N)c2ccc(OC)c(OC)c2)cc1O (configuration not stated)
[13]
  T/C: 114 % of control
[14]
  T/C: 100 % of control
[15]
  T/C: 97 % of control

## COc1ccc(CC2C(=O)NC(C)C(=O)N(C)C3C(=O)N(C)C(Cc4ccc(OC(C)=O)c(c4)Oc4ccc(cc4)C3OC(C)=O)C(=O)NC(C)C(=O)NC(C)C(=O)N2C)cc1 (configuration not stated)
dose: 2.0 mg/kg/injection, schedule: Q01DX009 (ip), vehicle: none
  T/C: 154 % of control

## NC(=O)c1ccccc1NC(=O)c1ccccc1C(=O)O
dose: 50.0 mg/kg/injection, schedule: Q01DX009 (ip), vehicle: saline with Tween-80
  T/C: 100 % of control and 101 % of control
dose: 100.0 mg/kg/injection, schedule: Q01DX009 (ip), vehicle: saline with Tween-80
  T/C: 99 % of control and 103 % of control
dose: 200.0 mg/kg/injection, schedule: Q01DX009 (ip), vehicle: saline with Tween-80
  T/C: 101 % of control and 103 % of control
dose: 400.0 mg/kg/injection, schedule: Q01DX009 (ip), vehicle: saline with Tween-80
  T/C: 100 % of control and 101 % of control

## CC(CNC(Cc1ccccc1)c1ccccc1)NC(Cc1ccccc1)c1ccccc1 (configuration not stated)
dose: 12.5 mg/kg/injection, schedule: Q01DX005 (ip), vehicle: Klucel (hydroxypropylcellulose) (HPC)
  T/C: 110 % of control
[16]
  T/C: 102 % of control
[10]
  T/C: 105 % of control and 110 % of control

## NC(=O)C1C(C(N)=O)C2C3C=CC(C4C(=O)NC(=O)C34)C12 (configuration not stated)
dose: 100.0 mg/kg/injection, schedule: Q04DX002 (ip), vehicle: saline with Tween-80
  T/C: 102 % of control
dose: 200.0 mg/kg/injection, schedule: Q04DX002 (ip), vehicle: saline with Tween-80
  T/C: 109 % of control
dose: 400.0 mg/kg/injection, schedule: Q04DX002 (ip), vehicle: saline with Tween-80
  T/C: 111 % of control

## O=C1CCCN1
dose: 100.0 mg/kg/injection, schedule: Q04DX003 (ip), vehicle: saline
  T/C: 100 % of control
dose: 200.0 mg/kg/injection, schedule: Q04DX003 (ip), vehicle: saline
  T/C: 100 % of control
dose: 400.0 mg/kg/injection, schedule: Q04DX003 (ip), vehicle: saline
  T/C: 109 % of control

## CN(C)c1ccc2c(SCC(=O)OCC(=O)[C@@]3(O)CC[C@H]4[C@@H]5CCC6=CC(=O)C=C[C@]6(C)[C@H]5C(=O)C[C@@]43C)c3ccc(N(C)C)cc3nc2c1
[16]
  T/C: 113 % of control

## CCOC(=O)c1c(N)sc2c1CCCCC2
[1]
  T/C: 100 % of control
[2]
  T/C: 104 % of control
[3]
  T/C: 100 % of control

## O=C1NC(=O)C2(N1)C1CCCC2C(c2ccccc2)NC1c1ccccc1 (configuration not stated)
[13]
  T/C: 96 % of control
[14]
  T/C: 91 % of control
[15]
  T/C: 90 % of control

## CP(=O)(OCCOCCOP(C)(=O)c1ccccc1)c1ccccc1 (configuration not stated)
[10]
  T/C: 98 % of control
[11]
  T/C: 103 % of control
[12]
  T/C: 101 % of control

## CC1(CBr)C2CCC1C(=O)C2 (configuration not stated)
dose: 6.25 mg/kg/injection, schedule: Q01DX005 (ip), vehicle: saline with Tween-80
  T/C: 100 % of control
dose: 12.5 mg/kg/injection, schedule: Q01DX005 (ip), vehicle: saline with Tween-80
  T/C: 96 % of control
dose: 25.0 mg/kg/injection, schedule: Q01DX005 (ip), vehicle: saline with Tween-80
  T/C: 96 % of control

## CCCOC(=O)/C=C(\Cl)C(=O)OCCC
[7]
  T/C: 104 % of control
[8]
  T/C: 109 % of control
[9]
  T/C: 113 % of control

## O=C(Oc1ccc(Cl)cc1Cl)C(Cl)=C(Cl)Cl
dose: 50.0 mg/kg/injection, schedule: Q01DX009 (ip), vehicle: saline
  T/C: 97 % of control
dose: 100.0 mg/kg/injection, schedule: Q01DX009 (ip), vehicle: saline
  T/C: 111 % of control
dose: 200.0 mg/kg/injection, schedule: Q01DX009 (ip), vehicle: saline
  T/C: 101 % of control

## CCOc1ccc(NC(=O)c2c(C)nc(-c3ccccc3)nc2Nc2ccc(Cl)cc2)cc1
[13]
  T/C: 90 % of control
[14]
  T/C: 90 % of control
[15]
  T/C: 94 % of control

## Cc1ccc(S(=O)(=O)N/N=C2/C=CC3(CC=CCC3)CC2)cc1 (configuration not stated)
dose: 50.0 mg/kg/injection, schedule: Q01DX009 (ip), vehicle: Klucel (hydroxypropylcellulose) (HPC)
  T/C: 109 % of control
dose: 100.0 mg/kg/injection, schedule: Q01DX009 (ip), vehicle: Klucel (hydroxypropylcellulose) (HPC)
  T/C: 100 % of control
dose: 200.0 mg/kg/injection, schedule: Q01DX009 (ip), vehicle: Klucel (hydroxypropylcellulose) (HPC)
  T/C: 100 % of control
